Data reported in ChEMBL document CHEMBL3808343, “Glutaminase GLS1 Inhibitors as Potential Cancer Treatment” (ACS Med Chem Lett, 2016).

Key:
NCI-H1703 = test: Antiproliferative activity against human NCI-H1703 cells assessed as reduction in cell growth after 5 days by Sytox Green dye based assay; assay type: functional; conditions: NCI-H1703, 120 h
[1] = biological target: T1, Glutaminase kidney isoform, mitochondrial (Homo sapiens, UniProt O94925)
T1 sequence (O94925 whole entry): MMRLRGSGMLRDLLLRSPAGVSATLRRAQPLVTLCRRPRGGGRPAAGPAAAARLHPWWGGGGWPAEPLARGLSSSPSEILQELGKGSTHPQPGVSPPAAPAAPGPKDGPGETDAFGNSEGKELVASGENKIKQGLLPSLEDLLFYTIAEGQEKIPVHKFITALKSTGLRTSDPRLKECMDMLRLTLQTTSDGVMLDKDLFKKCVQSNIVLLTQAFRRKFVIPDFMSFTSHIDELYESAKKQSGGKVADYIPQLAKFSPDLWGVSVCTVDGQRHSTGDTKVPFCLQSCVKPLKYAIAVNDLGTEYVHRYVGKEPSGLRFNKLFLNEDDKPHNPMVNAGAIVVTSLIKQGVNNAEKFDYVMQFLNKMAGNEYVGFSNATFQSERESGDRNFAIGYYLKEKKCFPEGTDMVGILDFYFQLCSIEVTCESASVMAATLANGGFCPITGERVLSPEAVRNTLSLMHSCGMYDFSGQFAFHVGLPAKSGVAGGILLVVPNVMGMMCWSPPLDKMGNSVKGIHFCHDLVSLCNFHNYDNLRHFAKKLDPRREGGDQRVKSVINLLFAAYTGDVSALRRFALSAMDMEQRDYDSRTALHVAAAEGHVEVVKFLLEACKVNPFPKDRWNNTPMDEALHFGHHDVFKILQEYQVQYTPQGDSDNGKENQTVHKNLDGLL
Description: Inhibition of 6His-tagged GLS1 (63-669 residues) (unknown origin) expressed in Escherichia coli using glutamine as substrate after 15 mins by Glutamate Oxidase/ AmplexRed coupled assay

[2] = biological target: T1, Glutaminase kidney isoform, mitochondrial; test: Inhibition of GLS1 in human PC3 cells assessed as cellular glutamate depletion levels after 6 hrs by Glutamate Oxidase/ AmplexRed coupled assay; assay type: cell-based, PC-3

IC50 [1] [nM]	IC50 [2] [nM]	SMILES	IC50 (NCI-H1703) [nM]
–	–	CO[C@H](C(=O)Nc1nnc(N[C@@H]2CCN(c3cncnn3)C2)s1)c1ccccc1	3.24
70.7	4.99	COc1cc([C@@H](OC)C(=O)Nc2nnc(N[C@@H]3CCN(c4cncnn4)C3)s2)ccc1F	107
–	–	COc1ccc([C@H](OC)C(=O)Nc2nnc(N[C@@H]3CCN(c4cccnn4)C3)s2)cc1	10.8
